Among the data in PubChem BioAssay (NCI) are GI50 and TGI values, retold here.

Test systems include SNB-75 CNS; SK-MEL-28 melanoma; HCT-116 colon; OVCAR-8 ovarian; U251 CNS; UACC-257 melanoma; TK-10 renal; SR leukemia; UO-31 renal; SW-620 colon.
What all share (assay): NCI-60 cell line screen, 48 h

Values joined by “and” are separate entries in the source; they are usually repeats but may differ in a detail not shown here. Equal entries are not always repeated.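 Five compound concentrations were applied to cells in 96-well plates for 48 hours; endpoints were derived by simple linear interpolation of the resulting dose-response curve. At the GI50, growth is halved. Definition used: TGI = concentration required for complete inhibition of growth.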 A value given as a limit tells only on which side of the number the result lay.

In the case of `N#CC1C(=N)Cc2ccccc2-c2ccccc21` (configuration not stated), the GI50 in the assay on SNB-75 CNS was 2.76 µM; in the assay on SK-MEL-28 melanoma it was 6.36 µM; with HCT-116 colon it was 3.25 µM; in the assay with OVCAR-8 ovarian it was 5.81 µM; with U251 CNS, 4.15 µM; in the assay on UACC-257 melanoma it was 8.33 µM. For the same molecule, the GI50 in the assay with TK-10 renal was 20.2 µM; in the assay on SR leukemia it was 3.31 µM; with UO-31 renal, 4.06 µM; with SW-620 colon, 4.22 µM. Moreover, the TGI amounted to 9.81 µM with SNB-75 CNS; 30.3 µM in the assay with SK-MEL-28 melanoma; 15.3 µM with HCT-116 colon; 41.1 µM in the assay on OVCAR-8 ovarian; 20.6 µM in the assay with U251 CNS; 69.1 µM in the assay with UACC-257 melanoma. Further, the TGI with TK-10 renal was determined as 63.6 µM; with SR leukemia, 20.7 µM; with UO-31 renal, 31.2 µM; in the assay on SW-620 colon it was 43.4 µM.
On to `C=C(CNCCc1ccc(O)cc1)[C@@H]1CC[C@]2(CO)CC[C@]3(C)[C@H](CC[C@@H]4[C@@]5(C)CCC(=O)C(C)(C)[C@@H]5CC[C@]43C)[C@@H]12`, for which the GI50 was 1.37 µM in the assay with SNB-75 CNS; 1.7 µM in the assay on SK-MEL-28 melanoma; 1.67 µM in the assay with HCT-116 colon; 1.73 µM in the assay with OVCAR-8 ovarian; 1.56 µM in the assay on U251 CNS; 1.78 µM in the assay with UACC-257 melanoma. Besides, the GI50 was 1.73 µM with TK-10 renal, 1.3 µM in the assay with SR leukemia, 1.3 µM in the assay on UO-31 renal and 1.77 µM in the assay on SW-620 colon. The TGI in the assay with SNB-75 CNS was determined as 2.74 µM; in the assay on SK-MEL-28 melanoma, 3.14 µM; in the assay with HCT-116 colon, 3.03 µM; in the assay with OVCAR-8 ovarian it was 3.16 µM; in the assay on U251 CNS it was 2.92 µM; in the assay with UACC-257 melanoma it was 3.26 µM. Further, the TGI in the assay with TK-10 renal came out at 3.19 µM; with SR leukemia, 4.17 µM; in the assay on UO-31 renal it was 2.58 µM; in the assay on SW-620 colon it was 3.76 µM.
Regarding `COc1cc(NN=C(c2ccc(O)cc2)c2ccc(O)cc2)c([N+](=O)[O-])cc1[N+](=O)[O-]`, the GI50 was 14.7 µM in the assay with SNB-75 CNS; 15.3 µM in the assay with SK-MEL-28 melanoma; 9.33 µM in the assay on HCT-116 colon; 4.91 µM with OVCAR-8 ovarian; 7.79 µM in the assay with U251 CNS; 15.5 µM in the assay on UACC-257 melanoma. Further, the GI50 in the assay on TK-10 renal was 4.69 µM; in the assay on SR leukemia it was 10.9 µM; in the assay with UO-31 renal it was 10.4 µM; with SW-620 colon, 15.2 µM. Also, the TGI in the assay with SNB-75 CNS was 29.6 µM; with SK-MEL-28 melanoma, 33.9 µM; in the assay with HCT-116 colon it was 21.8 µM; in the assay with OVCAR-8 ovarian it was 27.5 µM; in the assay on U251 CNS it was 20.6 µM; with UACC-257 melanoma, 29.3 µM. The TGI in the assay on TK-10 renal is 19.9 µM; in the assay with SR leukemia, more than 100 µM; with UO-31 renal it was 23.9 µM; in the assay on SW-620 colon it was 33.6 µM.
As for `COc1cc2c3c(n(CCCN)c(=O)c2cc1OC)-c1ccc(F)cc1C3=O`, the GI50 was 11.1 µM in the assay with SNB-75 CNS; 12.6 µM with SK-MEL-28 melanoma; 1.19 µM in the assay on HCT-116 colon; 3.07 µM with OVCAR-8 ovarian; 0.746 µM in the assay on U251 CNS; 13.9 µM with UACC-257 melanoma. Further, the GI50 with TK-10 renal is 14.7 µM; with SR leukemia, 0.118 µM; in the assay with UO-31 renal, 8.15 µM; in the assay with SW-620 colon it was 1.17 µM. Further, the TGI in the assay on SNB-75 CNS worked out at 27 µM; in the assay on SK-MEL-28 melanoma, 26.9 µM; with HCT-116 colon, 2.46 µM; with OVCAR-8 ovarian, 11.3 µM; in the assay on U251 CNS, 6.45 µM; in the assay with UACC-257 melanoma it was 31 µM. The TGI is 30.4 µM in the assay with TK-10 renal, 1.14 µM in the assay on SR leukemia, 23.7 µM in the assay on UO-31 renal and 15.5 µM in the assay with SW-620 colon.
For the molecule `N#Cc1c[nH]n2ccnc12`, the TGI with SNB-75 CNS, with SK-MEL-28 melanoma, in the assay with HCT-116 colon, in the assay on OVCAR-8 ovarian, in the assay on U251 CNS and in the assay on UACC-257 melanoma was more than 100 µM throughout. Moreover, the TGI with TK-10 renal, in the assay with SR leukemia, in the assay on UO-31 renal and in the assay with SW-620 colon was more than 100 µM throughout.
Regarding `Cc1ccc(S(=O)(=O)N2CCC3(C(/C=C/c4ccccc4)=Nc4ccccc43)C2c2ccccc2)cc1` (configuration not stated), the TGI in the assay on SNB-75 CNS, in the assay with SK-MEL-28 melanoma, with HCT-116 colon, in the assay on OVCAR-8 ovarian, in the assay with U251 CNS and in the assay with UACC-257 melanoma was more than 100 µM in each case. In addition, the TGI in the assay on TK-10 renal, with SR leukemia, with UO-31 renal and with SW-620 colon was more than 100 µM each time.
`CC(=O)OCC1OC(OC2CC3C(C)(C)C(OC(C)=O)CC[C@]3(C)C3CCC45CC4(CC[C@H]5C(C)CC(O)C4OC4(C)C)[C@]23C)C(O)C(O)C1O` (some centres not stated): the GI50 is 3.7 µM with SNB-75 CNS; 2.99 µM in the assay on SK-MEL-28 melanoma; 2.14 µM with HCT-116 colon; 3 µM in the assay on OVCAR-8 ovarian; 3.13 µM with U251 CNS; 4.1 µM with UACC-257 melanoma. For the same molecule, the GI50 in the assay on SW-620 colon was 3.46 µM. Also, the TGI in the assay on SNB-75 CNS was 8.23 µM and 12.4 µM; in the assay on SK-MEL-28 melanoma it was 7.11 µM and 9.32 µM; in the assay on HCT-116 colon it was 3.46 µM and 4.42 µM; in the assay on OVCAR-8 ovarian, 8.24 µM and 9.67 µM; in the assay with U251 CNS, 7.73 µM and 11.8 µM; in the assay on UACC-257 melanoma, 7.28 µM and 14.7 µM. Besides, the TGI was 9.79 µM and 12.7 µM with TK-10 renal; 8.58 µM in the assay on SR leukemia; 11.1 µM and 14.4 µM in the assay on UO-31 renal; 9.98 µM and 11.3 µM with SW-620 colon.
Consider `CC(C)(C)OC(=O)NCCCCCCCCn1c2c(c3ccccc3c1=O)C(=O)c1ccccc1-2`, for which the GI50 is 10.6 µM with SNB-75 CNS; more than 50 µM in the assay on SK-MEL-28 melanoma; 26.8 µM with HCT-116 colon; 33.9 µM in the assay on OVCAR-8 ovarian; 16.7 µM in the assay with U251 CNS; more than 50 µM in the assay on UACC-257 melanoma. Also, the GI50 was 11.7 µM with TK-10 renal, more than 34.8 µM in the assay on SR leukemia, 34 µM in the assay with UO-31 renal and more than 50 µM with SW-620 colon. Also, the TGI in the assay with SNB-75 CNS was 29.2 µM; with SK-MEL-28 melanoma, more than 50 µM; in the assay on HCT-116 colon, more than 50 µM; with OVCAR-8 ovarian it was more than 50 µM; in the assay on U251 CNS it was more than 50 µM; with UACC-257 melanoma, more than 50 µM. Further, the TGI in the assay on TK-10 renal is 30.7 µM; in the assay with SR leukemia, more than 50 µM; in the assay with UO-31 renal it was more than 50 µM; with SW-620 colon, more than 50 µM.
